≈ marks a conversion by molar mass, not a printed value. Where “and” joins values, the source holds several entries; their conditions need not be identical. Equal entries are not always repeated. Where two headings read alike, the source gives them in different places.
Assays:
[1] = tested on: MRSA ATCC 33591; experiment: MIC by broth microdilution (CLSI); assay type: cell-based; conditions: Staphylococcus aureus, MHB, 37 °C, 16 h
Text: (§1) To assess the impact of the nitrogen position in our newly synthesized anaephene derivates, we analyzed their antimicrobial activities against various S. aureus strains, including ATCC 25,923 and the two methicillin-resistant S. aureus (MRSA) strains ATCC 33,591 and ATCC BAA-44. […] We determined the minimum inhibitory concentrations (MIC) of each of our compounds against the different bacterial strains by broth microdilution following the CLSI guidelines. As expected, all five compounds tested were completely ineffective against the Gram-negative P. aeruginosa strain ATCC 27,853 (Table 1).
(§2) The MIC values of the alkyl pyridinol derivatives against the S. aureus strain ATCC 25923, MRSA strains ATCC 33591, ATCC BAA-44, and USA300LAC, as well as the P. aeruginosa strain ATCC 27853, were determined by following the CLSI guidelines for the broth microdilution antibiotic sensitivity testing protocol. In brief, the overnight cultures were diluted into Mueller Hinton Broth (MHB) to a final inoculum concentration of 5 × 10^5 CFU/mL (O.D600nm = 0.00001) and dispensed into a 96-well polystyrene plate (Alkali Scientific, Fort Lauderdale, FL, USA). Alkyl pyridine compounds were diluted into inoculated MHB to the indicated concentrations from stock solutions that would allow for DMSO concentrations below 5%, resulting in a total volume of 200 μL per well. The plates were subsequently incubated at 37 °C for 16 h at 300 rpm. The MIC values, which are defined as the lowest compound concentration that inhibited growth, were determined from three biological replicates.

[2] = tested on: MRSA ATCC BAA-44; experiment: MIC by broth microdilution (CLSI); assay type: cell-based; conditions: Staphylococcus aureus, MHB, 37 °C, 16 h
Text: as §1, §2

[3] = tested on: P. aeruginosa ATCC 27853; experiment: MIC by broth microdilution (CLSI); assay type: cell-based; conditions: Pseudomonas aeruginosa, ATCC27853, MHB, 37 °C, 16 h
Text: as §1, §2

[4] = tested on: S. aureus ATCC 25923; experiment: MIC by broth microdilution (CLSI); assay type: cell-based; conditions: Staphylococcus aureus, ATCC25923, MHB, 37 °C, 16 h
Text: as §1, §2

[5] = tested on: S. aureus/MRSA strains; experiment: MIC by broth microdilution, S. aureus/MRSA strains; assay type: cell-based, Staphylococcus aureus; conditions: for MIC: Staphylococcus aureus, MRSA, S. aureus/MRSA strains tested, strain not singled out, read-out: MIC
Text: as §1, §2

[6] = tested on: 3T3 mouse embryonic fibroblast cells; experiment: MTT cytotoxicity assay; assay type: cell-based; conditions: 3T3 cells; for IC50: Mus musculus, NIH3T3, 24 h
Experimental: To gauge the potential for toxicity of the new alkyl pyridinol derivates, we tested their cytotoxicity by examining the metabolic activity of 3T3 mouse embryonic fibroblast cells using the tetrazolium dye 3-(4,5-dimethylthiazol-2-yl)-2,5-diphenyltetrazolium bromide (MTT), as has been done before. The dye is reduced by NAD(P)H-dependent cellular oxidoreductases, resulting in the formation of the insoluble formazan with its purple color, which can be quantified. 3T3 cells were treated with different concentrations of the alkyl pyridinol compounds for 24 h, and the absorbance of the MTT-treated cell culture supernatant was measured at 540 nm. Absorbances were plotted against concentrations of the compound added (Supplementary Figure S2), and IC50, the concentration of a drug required for 50% metabolic inhibition, was calculated for each compound. […] However, the concentrations at which these compounds compromise 3T3 mouse embryonic fibroblast cells are well above their reported MICs (Table 2).
3T3 cells (male mouse embryonic fibroblast Flp-In cells, Thermo Fisher, Waltham, MA, USA) were cultured in D-MEM (Corning, Corning, NY, USA) supplemented with 10% Fetal Clone III (Cytiva Hyclone, Bengaluru, India) and L-Glutamine (Alfa Aesar, Haverhill, MA, USA) at 37 °C and 5% CO2. To determine the compound’s toxicity, 3T3 cells were seeded at a density of 10,000 cells/well into 96-well plates (Fisherbrand, Waltham, MA, USA) and cultured as described above. After 16 h, the culture medium was extracted and replaced by supplemented D-MEM without phenol red (Corning, Glendale, AZ, USA) containing individual compounds in the indicated concentrations. Furthermore, 1% sodium dodecyl sulfate (SDS) and 2% dimethyl sulfoxide (DMSO), equivalent to the volume of the DMSO in the highest compound concentration, were used as the cell death and vehicle control, respectively. Moreover, 16 h after compound treatment, the culture medium was extracted again and replaced by fresh supplemented D-MEM without phenol red. Subsequently, 10 µL of 5 mg/mL MTT reagent (Alfa Aesar, Haverhill, MA, USA), dissolved in DMSO, was added to each well, and the cells were incubated for 2 h at 37 °C and 5% CO2. Next, 85 µL of the culture supernatant was removed from each well, mixed with 50 µL of DMSO, and incubated in an optical grade 96-well plate (Fisherbrand, Waltham, MA, USA) in a shaking incubator at 37 °C and 250 rpm. The absorbance of the MTT-treated cell culture supernatant was measured at 540 nm in an ELx808 plate reader (Biotek, Winooski, VT, USA).

[7] = tested on: MRSA USA300LAC; experiment: MIC by broth microdilution (CLSI); assay type: cell-based, Staphylococcus aureus; conditions: Staphylococcus aureus; MRSA USA300LAC; MHB, 37 °C, 16 h; read-out: MIC
Experimental: as §2

[8] = tested on: MRSA USA300LAC; experiment: Minimal bactericidal concentration (MBC); assay type: cell-based, Staphylococcus aureus; conditions: for bactericidal or bacteriostatic effect: USA300LAC, in words
Experimental: In brief, 10 µL of each culture was serially diluted and plated onto prewarmed LB agar and incubated overnight at 37 °C under static conditions to observe the colony-forming units (CFUs). The concentration at which no CFUs were observed was recorded as the MBC.

[9] = tested on: USA300LAC cells; experiment: Propidium iodide uptake assay (membrane damage); assay type: cell-based, Staphylococcus aureus; conditions: up to 2× MIC, 1 h exposure
Text: The alkyl pyridinol derivates synthesized in this study are characterized by high lipophilicity. To determine whether and to what extent these compounds incorporate into and disrupt the phospholipid bilayer of the S. aureus cell envelope, we performed a propidium iodide (PI) uptake assay. Given the membrane-impermeable nature of PI, the fluorophore can be used to assess membrane disruption in cells by measuring its non-specific interaction with DNA, which leads to enhanced fluorescence. […] The extent of membrane damage caused by JC-01-074 occurred in a dose-dependent manner.
Figure 4 JC-01-074 causes significant membrane damage in S. aureus. Membrane damage was evaluated via propidium iodide (PI) staining. […] Treatment of USA300LAC with 2.5% DMSO, 4 µg/mL vancomycin, and 0.25% SDS were included as negative and positive controls, respectively. Cells were collected, washed, resuspended in PBS, and stained with 1 µM PI. PI fluorescence was measured (exc./em. wavelengths: 535/615 nm) and normalized to OD600nm. One-way ANOVA, Dunnett’s multiple-comparison test (* p < 0.05, **** p < 0.0001); (n = 3, ±S.D.).
The plasma membrane integrity was determined using the Propidium Iodide Uptake assay, as previously described. Briefly, the overnight cultures of USA300LAC were diluted into fresh TSB media, grown to an early log phase at 37 °C and 300 rpm, and treated with either DMSO, an alkyl pyridinol derivate, vancomycin, or SDS at the indicated concentrations for 1 h. Following two washing steps, the cells were then resuspended in phosphate-buffered saline (PBS), pH = 7.4, and subsequently stained with 1 µM propidium iodide (PI). The PI fluorescence intensity was determined at an excitation wavelength of 535 nm and an emission wavelength of 615 nm.

[10] = 24 h treatment, mean ± S.D., read-out: IC50

Question: `CCCCCCCCCC#Cc1cc(O)ccn1` [EA-02-011] was tested. Which MIC [1] did it give?
Answer: 32 µg/mL (≈ 130 µM)

Question: And the MIC [2]?
Answer: 32 µg/mL (≈ 130 µM)

Question: And the MIC [3]?
Answer: > 128 µg/mL

Question: And the MIC [4]?
Answer: 32 µg/mL (≈ 130 µM)

Question: What about the MIC [5] of the same compound?
Answer: 32 µg/mL (≈ 130 µM)

Question: And the “IC50 of single biological replicates (Figure S2)” value ([6]; 24 hours, one value per biological replicate, listed as EA-02-11)?
Answer: 10.9 µg/ml and 8.6 µg/ml

Question: And the IC50 ([6]; 24 hours, one value per biological replicate, read-out: IC50 of single biological replicates (Figure S2))?
Answer: 12.7 µg/mL

Question: What about the IC50 [6, 10] of the same compound?
Answer: 43.6 µM and 10.7 µg/mL

Question: Which results are given for `CCCCCCCCCC#Cc1cc(O)cc(Br)n1` [EA-02-009]?
Answer: MIC [1]: 0.5 µg/mL (≈ 1.54 µM); MIC [2]: 1 µg/mL (≈ 3.08 µM); MIC [3]: > 128 µg/mL; MIC [4]: 1 µg/mL (≈ 3.08 µM); MIC [7]: 32 µg/mL (≈ 98.7 µM); MIC [5]: 0.5 to 1 µg/mL (≈ 1.54 to 3.08 µM); MBC ([8]; Staphylococcus aureus, MRSA USA300LAC, concentration at which no CFUs were observed): > 128 µg/mL; bactericidal or bacteriostatic effect [8]: bacteriostatic; bactericidal or bacteriostatic effect ([8]; listed as EA-002-009): no significant killing; IC50 of single biological replicates (Figure S2) ([6]; 24 hours, one value per biological replicate, listed as EA-02-09): 16.1 µg/ml and 17.4 µg/ml and 31.4 µg/ml and 73.2 µg/ml; IC50 [6, 10]: 107 ± 82.3 µM; changes in PI intensity [9]: minimal changes

Question: For `CCCCCCCCCC#Cc1cc(O)cc(C#CCCCCCCCCC)n1` [JC-01-083], which MIC [1] is on record?
Answer: > 128 µg/mL

Question: And the MIC [2]?
Answer: > 128 µg/mL

Question: What about the MIC [3] of the same compound?
Answer: > 128 µg/mL

Question: And the MIC [4]?
Answer: > 128 µg/mL

Question: What about the “antimicrobial activity against S. aureus/MRSA strains” value ([5]; in words) of the same compound?
Answer: completely inactive

Question: What about the “IC50 of single biological replicates (Figure S2)” value ([6]; 24 hours, one value per biological replicate, listed as JC-01-83) of the same compound?
Answer: 32 µg/ml and 43.5 µg/ml and 27.7 µg/ml and 20.8 µg/ml

Question: What about the IC50 [6, 10] of the same compound?
Answer: 78.2 µM and 31 µg/mL
